Legend:
[1] = system: NPY-like receptors in non-human organisms; experiment: Cell-based GCaMP6s assay of related NPY-like receptors from a variety of organisms; details: HEK cells, GCaMP6s readout, FIG. 2
Description: (§1) The six compounds were screened in vitro against the panel of all 49 known Ae. aegypti peptide receptors from both L3 and L5 genome annotations, as well as human NPY receptors. FIG. 2 illustrates the level of activation of related NPY-like receptors by Ae. aegypti NPYLR7 agonists in a variety of organisms in a cell-based assay. HEK cells were transfected with receptor cDNA, promiscuous Gα subunit, and GCaMP6s. Activation was read out as increase in GFP fluorescence and EC50 values were calculated on a 6 point dose-response curve (FIG. 2). The vertical axis of each box represents NPY-related receptors for each organism: for instance, Ae. aegypti has three receptors that were tested in this assay, while Ae. Albopictus has four. […] Albopictus. The horizontal axis indicates the compound tested. […] Compounds 6, 7, 2, 5, 1, and 9 were also tested.

[2] = system: Aedes albopictus NPY-like receptors; experiment: Cell-based GCaMP6s assay of Aedes albopictus NPY-like receptors; details: FIG. 2
Description: as §1
(§2) Aedes albopictus host-seeking in a miniport olfactometer two days after feeding the indicated meals (n=6-34, 15-25 females/trial) is shown in FIG. 5. Data are plotted as median with range.

[3] = system: Aedes albopictus mosquitoes; experiment: Miniport olfactometer host-seeking assay in Aedes albopictus; format: in vivo; details: two days after feeding, FIG. 5
Description: as §2

human NPY receptors = experiment: Cell-based GCaMP6s assay of human NPY receptor activation; details: HEK cells, GCaMP6s readout, FIG. 2
Description: as §1

Female mosquitoes = experiment: Live host assay: blood-feeding on an anesthetized mouse (mark-release-recapture); format: in vivo, Ae. aegypti; details: 100 μM in saline fed two days prior
Description: Females from each feeding group were separately marked with one of three different paint powders using the “shake in a bag” technique (Verhulst et al., 2013), and all three of these groups were pooled and allowed to recover together in a cage. […] Females were scored for powder color to indicate treatment condition and for the presence of fresh blood in the midgut. Similar to the results in host-seeking assays, non-blood-fed and saline-fed females consumed fresh blood at high levels. In contrast, females that had fed on sheep blood two days prior rarely consumed fresh blood. […] (Compound designations shown as circled numbers.)

Structure (SMILES)	Activation of NPY-like receptors in non-human organisms [1]	Activation of Aedes albopictus NPY-like receptors in vitro [2]	Suppression of host-seeking in Aedes albopictus, miniport olfactometer [3]	Activation of human NPY receptors (human NPY receptors)	Blood-feeding on a live host (anesthetized mouse) (Female mosquitoes; 15 minutes access to mouse)	Blood-feeding on a live host, NPYLR7 mutants (Female mosquitoes; NPYLR7 mutant females)
CC(C)(C)c1cnc(CSc2cnc(NC(=O)C3CCNCC3)s2)o1 [Compound 6]	activate many of the receptors in non-human organisms	activates Aedes albopictus NPY-like receptors in vitro	suppresses host-seeking in Aedes albopictus mosquitoes	none of these compounds activates any of the human receptors		
COc1ccc(CC2c3cc(OC)c(OC)cc3CC[N+]2(C)CCC(=O)OCCCCCOC(=O)CC[N+]2(C)CCc3cc(OC)c(OC)cc3C2Cc2ccc(OC)c(OC)c2)cc1OC (centres unmarked) [Compound 9]	activate many of the receptors in non-human organisms			none of these compounds activates any of the human receptors		
COc1ccc2nc(N)nc(C)c2c1 [Compound 2]	activate many of the receptors in non-human organisms			none of these compounds activates any of the human receptors		
COc1ccc2c(C)nc(NC(=N)N)nc2c1 [Compound 1]	activate many of the receptors in non-human organisms			none of these compounds activates any of the human receptors	very low levels of blood-feeding on a live host	resistant to this effect
CCc1nc(NC(=N)N)nc2cc(C)ccc12 [Compound 5]	activate many of the receptors in non-human organisms			none of these compounds activates any of the human receptors		

Reference: US20210045387A1, “COMPOSITIONS AND METHODS TO INHIBIT ARTHROPOD HOST-SEEKING BEHAVIOR” (The Rockefeller University, priority 2019, published 2021)
